target: T1, Gal4DBD/AaEcR (DEF) (Aedes aegypti, UniProt P49880); assay: cell-based; format: cell-based; settings: 33 μM; 3T3 cells; 48 h; average of two wells
T1 construct: The wildtype D, E, and F domains from mosquito Aedes aegypti EcR; expressed in transfected cells; host or cells: 3T3 cells
Description: 3T3 cells were trypsinized and plated at 2.5×10^3 cells/well on a 96-well plate. After incubation for 24 h at 37° C. under 5% CO2, cells were transfected with the Gal4DBD/AaEcR (DEF) gene expression cassette and the reporter plasmid, pFRLuc, containing a 5× GAL4 response element and the firefly luciferase gene in serum free media using Superfect (Qiagen). After transfection for 4 h at 37° C., the cells were treated with ligand in serum media. […] Single dose testing was performed at 33 μM.

T1 sequence (P28704 286-520 A311G/G315S/G445S/I449V): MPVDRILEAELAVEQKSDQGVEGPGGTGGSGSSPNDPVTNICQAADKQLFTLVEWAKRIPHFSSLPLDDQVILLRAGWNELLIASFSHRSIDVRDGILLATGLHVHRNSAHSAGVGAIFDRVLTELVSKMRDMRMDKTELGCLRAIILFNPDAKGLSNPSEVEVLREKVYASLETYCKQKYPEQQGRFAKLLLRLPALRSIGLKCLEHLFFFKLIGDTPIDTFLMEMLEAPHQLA
T1 sequence (P49880 405-776): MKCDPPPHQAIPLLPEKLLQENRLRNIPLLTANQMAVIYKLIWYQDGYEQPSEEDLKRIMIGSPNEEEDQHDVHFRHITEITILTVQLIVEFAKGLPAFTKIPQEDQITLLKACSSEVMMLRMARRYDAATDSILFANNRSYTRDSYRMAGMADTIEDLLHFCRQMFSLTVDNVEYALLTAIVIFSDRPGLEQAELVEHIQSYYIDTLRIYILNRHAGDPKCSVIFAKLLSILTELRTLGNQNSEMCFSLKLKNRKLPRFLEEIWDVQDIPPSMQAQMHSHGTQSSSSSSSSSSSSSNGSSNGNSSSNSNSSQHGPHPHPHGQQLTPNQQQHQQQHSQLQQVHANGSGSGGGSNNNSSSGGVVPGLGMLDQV

Point of comparison: `CC(=O)N1c2ccccc2C(N(C(=O)c2ccc(F)cc2)c2ccccc2)CC1C` (stereo not drawn) [Compound I-128], “Fold Induction Average, AA_3T3V1 Assay 33 μM” value 1 fold. Against it:
- Cc1ccc(C(=O)N2c3ccccc3C(Nc3cccc(C)c3)CC2C)cc1 (mixture of isomers) [Compound I-44] — higher, 26 fold
- COc1cccc(NC2CC(C)N(C(=O)c3ccc(C)cc3)c3ccccc32)c1 (mixture of isomers) [Compound I-46] — higher, 8 fold
- Cc1ccc(C(=O)N2c3cc(Cl)ccc3C(Nc3ccc(F)cc3)CC2C)cc1F (mixture of isomers) [Compound I-48] — higher, 19 fold
- CCCCCCCC(=O)N1c2ccccc2[C@@H](Nc2ccccc2)C[C@@H]1C (relative stereo) [Compound I-2] — higher, 49 fold
- CCCCC(=O)N1c2ccccc2[C@@H](Nc2ccccc2)C[C@@H]1C (relative stereo) [Compound I-3] — higher, 252 fold
- C[C@H]1C[C@@H](Nc2ccccc2)c2ccccc2N1C(=O)c1ccc(F)c(F)c1 (relative stereo) [Compound I-18] — higher, 83 fold
- C[C@H]1C[C@@H](Nc2ccccc2)c2ccccc2N1C(=O)c1ccc(C(F)(F)F)c(F)c1 (relative stereo) [Compound I-20] — higher, 47 fold
- C[C@H]1C[C@@H](Nc2ccccc2)c2ccccc2N1C(=O)c1ccc(Cl)cc1 (relative stereo) [Compound I-29] — higher, 61 fold
- COC(=O)c1ccc(C(=O)N2c3ccccc3[C@H](Nc3ccccc3)C[C@@H]2C)cc1 (relative stereo) [Compound I-30] — higher, 9 fold
- CCCCCCCCC(=O)N1c2ccccc2[C@@H](Nc2ccccc2)C[C@@H]1C (relative stereo) [Compound I-127] — higher, 22 fold
- Cc1ccc(N[C@H]2C[C@H](C)N(C(=O)Nc3cccc(Cl)c3)c3ccc(C)cc32)cc1 (relative stereo) [Compound I-218] — higher, 6 fold
- Cc1ccc(NC(=O)N2c3ccc(C)cc3[C@@H](Nc3ccc(C)cc3)C[C@@H]2C)cc1 (relative stereo) [Compound I-219] — higher, 3 fold
- C[C@H]1C[C@H](Nc2ccc(F)cc2)c2cc(F)ccc2N1C(=O)Nc1ccccc1 (relative stereo) [Compound I-221] — higher, 1027 fold
- C[C@H]1C[C@H](Nc2ccc(F)cc2)c2cc(F)ccc2N1C(=O)Nc1ccc(Cl)cc1 (relative stereo) [Compound I-222] — higher, 939 fold
- C[C@H]1C[C@H](Nc2ccc(F)cc2)c2cc(F)ccc2N1C(=O)Nc1cccc(Cl)c1 (relative stereo) [Compound I-223] — higher, 1414 fold
- Cc1ccc(NC(=O)N2c3ccc(F)cc3[C@@H](Nc3ccc(F)cc3)C[C@@H]2C)cc1 (relative stereo) [Compound I-224] — higher, 1245 fold
- Cc1cccc(NC(=O)N2c3ccc(F)cc3[C@@H](Nc3ccc(F)cc3)C[C@@H]2C)c1 (relative stereo) [Compound I-225] — higher, 1561 fold
- Cc1ccc(NC2CC(C)N(C(=O)c3ccc(Cl)cc3)c3ccc(C)cc32)cc1 (stereo not drawn) [Compound I-32] — the same, 1 fold
- Cc1ccc(NC2CC(C)N(C(=O)c3ccc(C(F)(F)F)c(F)c3)c3ccc(C)cc32)cc1 (stereo not drawn) [Compound I-49] — higher, 3 fold
- Cc1ccc(NC2CC(C)N(C(=O)c3ccccc3F)c3ccc(C)cc32)cc1 (stereo not drawn) [Compound I-51] — higher, 4 fold
- Cc1ccc(NC2CC(C)N(C(=O)c3ccccc3C)c3ccc(C)cc32)cc1 (stereo not drawn) [Compound I-52] — higher, 19 fold
- CCc1ccc(C(=O)N2c3ccccc3C(Nc3ccccc3)CC2C)cc1 (stereo not drawn) [Compound I-59] — higher, 4 fold
- Cc1ccc(NC2CC(C)N(C(=O)c3ccc(C)cc3)c3ccc(C)cc32)cc1 (stereo not drawn) [Compound I-99] — higher, 2 fold
- Cc1ccc(NC2CC(C)N(C(=O)c3ccccc3)c3ccc(C)cc32)cc1 (stereo not drawn) [Compound I-100] — higher, 2 fold
- CCc1c(OC)cccc1C(=O)N1c2ccc(C)cc2C(Nc2ccc(C)cc2)CC1C (stereo not drawn) [Compound I-112] — higher, 194 fold
- CC1CC(Nc2ccc(F)cc2)c2cc(F)ccc2N1C(=O)c1ccno1 (stereo not drawn) [Compound I-114] — higher, 1421 fold
- CC1CC(Nc2ccc(F)cc2)c2cc(F)ccc2N1C(=O)c1ccc(Cl)c(F)c1 (stereo not drawn) [Compound I-115] — higher, 643 fold
- CC1CC(Nc2ccc(F)cc2)c2cc(F)ccc2N1C(=O)c1ccnc(Cl)c1 (stereo not drawn) [Compound I-116] — higher, 1100 fold
- CCc1c(OC)cccc1C(=O)N1c2ccc(F)cc2C(Nc2ccc(F)cc2)CC1C (stereo not drawn) [Compound I-117] — higher, 1256 fold
- CC1CC(Nc2ccccc2)c2ccccc2N1C(=O)C=Cc1ccco1 (stereo not drawn) [Compound I-121] — higher, 81 fold
- CC1CC(Nc2ccccc2)c2ccccc2N1C(=O)c1cccs1 (stereo not drawn) [Compound I-122] — higher, 5 fold
- CC(=O)N(c1ccccc1)C1CC(C)N(C(=O)c2ccc(C(C)(C)C)cc2)c2ccccc21 (stereo not drawn) [Compound I-123] — the same, 1 fold
- CC1CC(Nc2ccccc2)c2ccccc2N1C(=O)COc1ccccc1Cl (stereo not drawn) [Compound I-129] — the same, 1 fold
- CC1CC(Nc2ccccc2)c2ccccc2N1C(=O)Cc1ccccc1 (stereo not drawn) [Compound I-130] — the same, 1 fold
- CC(=O)N1c2ccccc2C(N(C(=O)c2ccc(C)cc2)c2ccccc2)CC1C (stereo not drawn) [Compound I-132] — the same, 1 fold
- CCCCCC(=O)N(c1ccccc1)C1CC(C)N(C(=O)c2cccc(OC)c2)c2ccccc21 (stereo not drawn) [Compound I-133] — the same, 1 fold
- CC1CC(N(C(=O)c2cccc(F)c2)c2ccccc2)c2ccccc2N1C(=O)c1cccc(F)c1 (stereo not drawn) [Compound I-136] — the same, 1 fold
- CC1CC(Nc2ccccc2)c2ccccc2N1C(=O)c1ccco1 (stereo not drawn) [Compound I-139] — the same, 1 fold
- CCOC(=O)C(=O)N1c2ccccc2C(N(C(=O)C(=O)OCC)c2ccccc2)CC1C (stereo not drawn) [Compound I-145] — higher, 47 fold
- COc1ccc(C=CC(=O)N2c3ccccc3C(N(C(C)=O)c3ccccc3)CC2C)cc1 (stereo not drawn) [Compound I-150] — the same, 1 fold
- COc1ccc(C(=O)N2c3ccccc3C(N(C(=O)c3ccc(OC)cc3)c3ccccc3)CC2C)cc1 (stereo not drawn) [Compound I-153] — the same, 1 fold
- CCCc1ccc(C(=O)N2c3c(C)cccc3C(Nc3ccccc3C)CC2C)cc1 (stereo not drawn) [Compound I-157] — the same, 1 fold
- Cc1cccc(C(=O)N2c3ccccc3C(N(C(=O)c3cccc(C)c3)c3ccccc3)CC2C)c1 (stereo not drawn) [Compound I-164] — the same, 1 fold

same assay, conditions: NIH3T3, read-out: Fold Induction Average, AA_3T3V1 Assay 33 μM

Work on `Cc1ccc(NC(=O)N2c3ccccc3[C@@H](Nc3ccccc3)C[C@H]2C)cc1` (relative stereo) [Compound I-214, cis-2-methyl-1-(4-methylphenylaminocarbonyl)-4-(4-phenylamino)-1,2,3,4-tetrahydroquinoline] yielded a fold induction at 33 µM of 820.

Source: patent US20050228016A1, “TETRAHYDROQUINOLINES FOR MODULATING THE EXPRESSION OF EXOGENOUS GENES VIA AN ECDYSONE RECEPTOR COMPLEX” (priority 2002, published 2005)
